{"source": "BindingDB's records for patent US8962648", "about": "(Oncotherapy Science, 2015)", "target": "T1, Lymphokine-activated killer T-cell-originated protein kinase (Homo sapiens, UniProt Q96KB5)", "T1 sequence (Q96KB5 whole entry)": "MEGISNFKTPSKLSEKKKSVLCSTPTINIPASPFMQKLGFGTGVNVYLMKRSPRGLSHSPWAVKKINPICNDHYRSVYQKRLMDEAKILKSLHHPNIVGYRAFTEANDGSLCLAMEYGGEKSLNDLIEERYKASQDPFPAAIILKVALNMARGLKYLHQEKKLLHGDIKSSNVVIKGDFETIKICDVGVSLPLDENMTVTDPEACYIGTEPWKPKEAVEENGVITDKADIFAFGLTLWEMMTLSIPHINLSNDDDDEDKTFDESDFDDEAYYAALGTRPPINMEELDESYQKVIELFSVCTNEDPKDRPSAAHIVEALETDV", "assay": "Kinase Assay", "conditions": "pH 7.4; 25 °C", "experimental": "PBK activity was determined in the presence or absence of compounds using fluorescein isothiocyanate-labeled (FITC-labeled) histone H3 peptide as a substrate. […] The serially diluted compounds, 0.8 ng/micro-L PBK (Carna Biosciences) and 100 nM FITC-labeled histone H3 peptide were reacted in a reaction buffer (20 mM HEPES, 0.01% Tween-20, 0.3 mM MgCl2, 2 mM dithiothreitol, 50 micro-M ATP, pH 7.4) at room temperature for 1 hour. The reaction was stopped by the addition of three fold assay volume of progressive binding solution. Following 0.5 hour incubation at room temperature.", "note": "pIC50: −log10 of the molar value. Where “and” joins values, the source holds several entries; their conditions need not be identical. Equal values may be shown once.", "data": [{"smiles": "CN(C)CCc1ccc(-c2c(O)ccc3[nH]c(=O)c4sccc4c23)cc1", "note": "[US8962648, 93]", "values": [{"measurement": "pIC50", "value": 8.27}]}, {"smiles": "NCc1ccc(-c2c(O)ccc3[nH]c(=O)c4sccc4c23)cc1", "note": "[US8962648, 73]", "values": [{"measurement": "pIC50", "value": "9.20 and 9.42"}]}, {"smiles": "CS(=O)(=O)N1CCN(c2ccc(-c3c(O)ccc4[nH]c(=O)c5sccc5c34)cc2)CC1", "note": "[US8962648, 112]", "values": [{"measurement": "pIC50", "value": 7.92}]}, {"smiles": "CCN(CC)CCNCCCOc1ccc(-c2c(OC)ccc3[nH]c(=O)c4sccc4c23)cc1", "note": "[US8962648, 145]", "values": [{"measurement": "pIC50", "value": 7.33}]}, {"smiles": "COc1ccc2[nH]c(=O)c3sccc3c2c1-c1ccc(CCN)cc1", "note": "[US8962648, 169]", "values": [{"measurement": "pIC50", "value": 7.66}]}]}
